One compound from patent US20150175666A1, “PEPTIDES DERIVED FROM HIV GP41 FOR TREATING T-CELL MEDIATED PATHOLOGIES” (Yeda Research and Development Co. Ltd., priority 2012, published 2015) can be followed below.

Series [1] relates to T cells (Jurkat T cells, MOG35-55-specific T cells). As to the kind of experiment: XTT cytotoxicity assay. The settings on record: up to maximal concentration examined (20 μM, FIG. 3G). In kind it is cell-based, human and murine. As for the experimental part: Aliquots of 2.5×10^4 of the cells (from Jurkat E6-1, T-cell line) were distributed onto a 96-well plate (Falcon) in the presence of various peptide concentrations and incubated for 24 h. Wells in the last two columns served as blank (medium only), and 100% survival controls (cells and medium only), respectively. After incubation, the XTT reaction solution benzene sulfonic acid hydrate and N-methyl dibenzopyrazine methyl sulfate, mixed in a proportion of 50:1, was added for 2 more hr. Optical density was read at a 450-nm wavelength in an enzyme-linked immunoabsorbent assay plate reader. LC50 (the concentration at which 50% of the cells die) was determined relative to the control, 2.5×10^4 cells in medium. All assays were performed in duplicate.
The viability of the cells was analyzed by an XTT cytotoxicity assay. The peptide was not toxic to T cells up to 20-fold more than the IC50 of the peptide, the maximal concentration examined (FIG. 3G).
A general note: Tetrazolium dyes change colour on reduction, which living cells bring about.

The subject of series [2] is human red blood cells (RBCs). In words: Hemolysis of human red blood cells. The class given is cell-based. The following applies: up to 100-fold IC50, maximal concentration examined (100 μM, 1 hr). As for the experimental part:
Fresh human red blood cells (RBCs) were rinsed two times with PBS, followed by centrifugation for 7 min at 2000 rpm and resuspension in PBS. Peptides, at various concentrations, were dissolved in PBS and added to 50 μl of the stock hemolysis of human red blood cell (hRBC) solution in PBS for a final volume of 100 μl (final erythrocyte concentration, 4% (v/v)). The resulting suspension was incubated with agitation for 60 min at 37° C. The samples were then centrifuged at 2000 rpm for 7 min. The release of hemoglobin was monitored by measuring the absorbance of the supernatant at 540 nm. Controls for zero hemolysis (blank) and 100% hemolysis consisted of hRBCs suspended in PBS and PBS with 1% Triton, respectively.
Hemolysis of red blood cells (RBCs) is often used to detect membranolytic activity of peptides. Hemolytic activity was measured by the release of hemoglobin into the media (OD 540 nm). Triton (1% v/v) served as a control for a hemolytic agent. Importantly, the peptide was not hemolytic up to 100-fold more than the IC50 of the peptide, the maximal concentration examined (FIG. 3H).

Series [3] can be described thus: In vivo toxicity in naïve mice. Set-up: species or system C57BL mice. The settings on record: 50 mg/kg i.v., n=3. As for the experimental part: First, the toxicity of the peptide was investigated by injecting naïve C57BL mice i.v. with 50 mg/kg of the peptides. […] Then, C57Bl/6J mice that were induced to develop clinical EAE by immunization with MOG35-55/CFA were given a dose of the peptide that was 100-fold less than the one examined in the toxicity assay, i.e. 10 μg per mouse (0.5 mg/kg), or PBS as a control. On day 10 post immunization, prior to the onset of clinical signs of EAE, the lymph node cells (LNCs) from each treatment group were cultured for 72 h in microtiter wells in triplicate (0.5×10^6/well) in the absence or presence of MOG35-55 (2.5 or 5 μg/ml; SEQ ID NO: 15). [H3] Thymidine was added for the last 18 h. The LNCs were analyzed ex vivo for their recall proliferative response to the immunizing MOG35-55 peptide and for secretion of pro-inflammatory cytokines.

Consider `CC[C@H](C)[C@H](NC(=O)[C@H](CCC(N)=O)NC(=O)[C@H](CCC(=O)O)NC(=O)[C@H](CC(C)C)NC(=O)[C@H](CO)NC(=O)[C@H](CCCCN)NC(=O)[C@H](CC(N)=O)NC(=O)[C@@H](N)CO)C(=O)N[C@@H](Cc1c[nH]c2ccccc12)C(=O)N[C@@H](CC(N)=O)C(=O)N[C@@H](Cc1c[nH]cn1)C(=O)N[C@H](C(=O)N[C@H](C(=O)N[C@@H](Cc1c[nH]c2ccccc12)C(=O)N[C@@H](CCSC)C(=O)N[C@@H](CCC(=O)O)C(=O)N[C@@H](Cc1c[nH]c2ccccc12)C(=O)N[C@@H](CC(=O)O)C(N)=O)[C@@H](C)O)[C@@H](C)O` [PEP 6, SNKSLEQIWNHTTWMEWD], for which the “toxicity to T cells (viability)” value in series [1] is on record as “not toxic”. Also, the hemolytic activity result in series [2] is given as “not hemolytic”. Further, the “toxic effect in mice” value in series [3] is listed as “No toxic effect”.
